Source: patent US20170065561A1, “METHODS OF CANCER THERAPY” (CAMBRIDGE ENTERPRISE LIMITED, priority 2014, published 2017)
“Also recorded” adds a separate entry of the source.

Assays:
[1] = target: T1, UDP-glucosylceramide synthase (Homo sapiens, UniProt Q16739); conditions: read-out: IC50 (potency, UDP-glucosylceramide synthase); cited from earlier work
T1 sequence (Q16739 1-394): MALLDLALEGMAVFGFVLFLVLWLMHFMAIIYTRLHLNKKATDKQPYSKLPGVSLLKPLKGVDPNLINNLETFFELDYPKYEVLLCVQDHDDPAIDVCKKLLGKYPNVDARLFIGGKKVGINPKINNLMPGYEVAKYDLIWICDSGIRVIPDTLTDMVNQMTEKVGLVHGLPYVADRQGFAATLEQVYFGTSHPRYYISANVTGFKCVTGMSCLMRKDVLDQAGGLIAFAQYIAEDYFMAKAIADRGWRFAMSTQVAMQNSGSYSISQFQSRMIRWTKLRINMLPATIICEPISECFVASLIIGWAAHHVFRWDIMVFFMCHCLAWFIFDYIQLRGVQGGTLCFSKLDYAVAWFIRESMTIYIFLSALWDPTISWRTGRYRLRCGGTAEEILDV

GD mice = experiment: Delayed treatment experiments: lymphoid hyperplasia and lymphoma (histology); type: in vivo, mouse; conditions: delayed treatment: 300 mg/Kg daily, mean age 7.3 months, 5.4 months, total 9 mice
Experimental: To investigate the potential effects of delayed treatment, eight Gaucher mice were exposed to Genz-112638 after 6 months of age. The animals received the drug for 6 months at a dose 300 mg/kg daily and were killed at 12 months of age (FIG. 1). A group of eight matched Gaucher disease control mice were given the base standard diet; these animals were monitored and otherwise treated identically with those animals with delayed exposure to the study drug.

[2] = tested on: AKT protein kinase-mammalian target of rapamycin signaling; conditions: polycystic kidney disease; cited from earlier work
Gaucher mice = experiment: Main treatment experiments: lymphoma incidence in Gaucher mice; type: in vivo, mouse
Experimental: The non-parametric Mann-Whitney test was used for between-groups comparisons. The Fisher's exact test was used for comparison of the occurrence of lymphoma or plasma paraprotein in treated and untreated groups. Statistical analyses were conducted using GraphPad Prism v5.0 software.

[3] = tested on: plasma β-D-glucosylsphingosine; experiment: Main treatment experiments in GD mice: plasma glucosylsphingosine; type: in vivo, mouse; conditions: for plasma glucosylsphingosine: GD mice with intermittent treatment; for reduction of plasma glucosylsphingosine: 300 mg/kg/day
Experimental: The inducible mouse model of type 1 Gaucher disease [Gba^tm1Karl/tm1KarlTg (Mx1-cre) 1Cgn/0 (MGI:3687965; MGI:2176073)[41]. The mating, induction with polyinosinic-polycytidylic (poly I:C) acid sodium salt solution and genotyping were conducted as previously described. Animals of genotype Gba^tm1Karl/tm1KarlTg (Mx1-cre) 1Cgn/0 are referred GD mice; induced mice with the Gba^tm1Karl/tm1Karl and Gba^tm1Karl/+ genotypes and background strain wild type animals served as age-matched controls. All mice here reported had been bred on a C57BL/6 and 129/sv background.
GENZ 112638 was introduced at a mean age of 1.5 months, with access to the diet and water ad libitum. All experimental animals were housed in individually ventilated cages in groups of up to three mice within the same environmental conditions. The health of the animals was checked daily; body weights and food consumption were monitored at intervals of three days. The humane endpoints were approved and established: (i) reduction of 20% or more of the greatest recorded body weight or (ii) the development of adverse manifestations (e.g. development of frank tumours or cachexia).
Concentrations of β-D-glucosylceramide in plasma in the short-term tolerability study were conducted as previously published. β-D-glucosylceramide, β-D-glucosylsphingosine and ceramide concentrations in tissues and plasma samples of the principal intervention and delayed-treatment experiments were quantified as previously reported.

intracellular ceramide = conditions: cited from earlier work

bis{N-[(1R,2R)-2-(2,3-dihydro-1,4-benzodioxin-6-yl)-2-hydroxy-1-(pyrrolidin-1-ylmethyl)ethyl]octanamide} (2R,3R)-2,3-dihydroxybutanedioate [eliglustat tartrate]
IC50 [1]: 24 nM | Lymphoid hyperplasia (number of mice) (GD mice): 4 | Lymphoma/myeloma (number of mice) (GD mice): 1 | Lymphoid hyperplasia (number of mice) (GD mice; listed as GENZ 112638): five | Lymphoma/myeloma (number of mice) (GD mice; listed as GENZ 112638): one and did not completely prevent | AKT protein kinase-mTOR signaling and cell-cycle control [2]: repress | occurrence of B cell lymphoma, myeloma or other tumours (Gaucher mice; 22 Gaucher mice exposed for 2-10 months, 300 mg/kg, early administration, listed as GENZ 112638, 300 mg/kg): No B cell lymphomas or other tumours were found; also recorded: completely prevented | Lymphoma (number of mice) (Gaucher mice; age group 0-6 months, total 4 mice): 0 | Lymphoma (number of mice) (Gaucher mice; age group 7-12 months, total 10 mice): 0 | Lymphoma (number of mice) (Gaucher mice; age group 13-18 months, total 8 mice): 0 | Lymphoma (number of mice) (Gaucher mice; all age groups, total 22 mice): 0 | plasma glucosylsphingosine ([3]; listed as GENZ 112638): raised above the reference range | plasma glucosylsphingosine ([3]; listed as Genz-112638): not significantly different | plasma β-D-glucosylsphingosine concentration ([3]; GD mice, 300 mg/kg daily, early continuous treatment, listed as GENZ 112638, 300 mg/kg): decreased; also recorded: notable decrease | reduction of plasma glucosylsphingosine ([3]; GD mice, after 6 months of treatment, p<0.01): ~5 fold | reduction of plasma glucosylsphingosine ([3]; GD mice, after 9 months of treatment, p<0.05): ~2 fold | intracellular ceramide levels (intracellular ceramide): does not inhibit 1-O-acylceramide synthase or increase intracellular ceramide levels
